{"source": "patent US6274718A", "about": "(priority 2000, dated 2001)", "key": {"gingipain-1 [1]": {"target": "gingipain-1 (Porphyromonas gingivalis, UniProt P28784)", "sequence (P28784 228-719)": "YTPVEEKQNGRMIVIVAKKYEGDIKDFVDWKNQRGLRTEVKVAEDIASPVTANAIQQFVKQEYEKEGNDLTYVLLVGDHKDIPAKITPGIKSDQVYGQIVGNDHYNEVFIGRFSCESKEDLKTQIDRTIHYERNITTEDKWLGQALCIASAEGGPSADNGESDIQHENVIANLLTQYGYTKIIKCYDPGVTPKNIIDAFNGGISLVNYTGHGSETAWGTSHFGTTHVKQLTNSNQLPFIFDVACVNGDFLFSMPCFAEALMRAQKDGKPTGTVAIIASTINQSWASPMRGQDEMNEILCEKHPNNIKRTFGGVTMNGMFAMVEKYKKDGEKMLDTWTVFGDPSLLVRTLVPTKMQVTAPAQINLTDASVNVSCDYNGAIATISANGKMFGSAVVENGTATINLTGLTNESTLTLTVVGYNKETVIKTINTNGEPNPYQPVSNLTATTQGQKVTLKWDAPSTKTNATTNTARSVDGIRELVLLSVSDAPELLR", "assay": "biochemical", "assay_type": "biochemical", "details": "for Activity +Gly-Gly: 0.1 mM compound, 50 mM Gly-Gly; for activity at 100 µM / activity at 1000 µM / activity at 10000 µM: pH 7.5, read-out: Activity -Gly-Gly; for stimulation of amidolytic activity: thiol / reducing compounds"}, "gingipain-1 [2]": {"test_system": "gingipain-1", "assay": "biochemical", "assay_type": "biochemical, Porphyromonas gingivalis", "details": "Sephadex G-150 peak fractions"}, "guinea pig skin": {"test_system": "guinea pig skin", "assay_type": "in vivo", "details": "10^-5 M"}}, "note": "Where a SMILES comes first, the peptide text is derived from it.", "data": [{"molecule": "O[C@H](CS)[C@H](O)CS", "note": "(racemic) [Dithiothreitol]", "values": [{"measurement": "Activity +Gly-Gly", "setting": "gingipain-1 [1]", "value": 636, "unit": "%"}, {"measurement": "activity at 100 µM", "setting": "gingipain-1 [1]", "value": 159, "unit": "%"}, {"measurement": "activity at 1000 µM", "setting": "gingipain-1 [1]", "value": 432, "unit": "%"}, {"measurement": "activity at 10000 µM", "setting": "gingipain-1 [1]", "value": 685, "unit": "%"}]}, {"molecule": "N[C@@H](CS)C(=O)O", "note": "[Cysteine]", "values": [{"measurement": "activity at 100 µM", "setting": "gingipain-1 [1]", "value": 685, "unit": "%"}, {"measurement": "stimulation of amidolytic activity", "setting": "gingipain-1 [1]", "value": "most efficient"}]}, {"molecule": "N[C@@H](CCC(=O)N[C@@H](CS)C(=O)NCC(=O)O)C(=O)O", "note": "[Glutathione]", "values": [{"measurement": "Activity +Gly-Gly", "setting": "gingipain-1 [1]", "value": 853, "unit": "%"}, {"measurement": "activity at 100 µM", "setting": "gingipain-1 [1]", "value": 208, "unit": "%"}, {"measurement": "activity at 1000 µM", "setting": "gingipain-1 [1]", "value": 593, "unit": "%"}, {"measurement": "activity at 10000 µM", "setting": "gingipain-1 [1]", "value": 770, "unit": "%"}]}, {"molecule": "NCC(=O)NCC(=O)O", "note": "[Gly-Gly, glycyl-glycine] (H-Gly-Gly-OH)", "values": [{"measurement": "enhancement of Bz-L-Arg-pNA hydrolytic activity", "setting": "gingipain-1 [2]", "value": "enhanced many-fold"}]}, {"molecule": "OCCS", "note": "[Mercaptoethanol]", "values": [{"measurement": "Activity +Gly-Gly", "setting": "gingipain-1 [1]", "value": 627, "unit": "%"}, {"measurement": "activity at 100 µM", "setting": "gingipain-1 [1]", "value": 165, "unit": "%"}, {"measurement": "activity at 1000 µM", "setting": "gingipain-1 [1]", "value": 456, "unit": "%"}, {"measurement": "activity at 10000 µM", "setting": "gingipain-1 [1]", "value": 685, "unit": "%"}]}, {"molecule": "NCCS", "note": "[cysteamine]", "values": [{"measurement": "stimulation of amidolytic activity", "setting": "gingipain-1 [1]", "value": "most efficient"}]}, {"molecule": "NCC(N)=O", "note": "[glycine amide]", "values": [{"measurement": "enhancement of Bz-L-Arg-pNA hydrolytic activity", "setting": "gingipain-1 [2]", "value": "enhanced many-fold"}]}, {"molecule": "NCC(=O)O", "note": "[glycine]", "values": [{"measurement": "effect of glycine and glycine analogues on kcat/Km", "setting": "gingipain-1 [1]; preliminary kinetic data, kcat and Km both raised equally", "value": "kcat /Km ratio does not change"}]}, {"molecule": "soybean trypsin inhibitor: soybean trypsin inhibitor (SBTI) (protein, UniProt P01070 25-205, looked up) Trypsin inhibitor A: DFVLDNEGNPLENGGTYYILSDITAFGGIRAAPTGNERCPLTVVQSRNELDKGIGTIISSPYRIRFIAEGHPLSLKFDSFAVIMLCVGIPTEWSVVEDLPEGPAVKIGENKDAMDGWFRLERVSDDEFNNYKLVFCPQQAEDDKCGDIGISIDHDDGTRRLVVSKNKPLVVQFQKLDKESL", "values": [{"measurement": "inhibition of vascular permeability enhancement", "setting": "guinea pig skin", "value": "inhibited"}]}]}
